In publication PMC11087982, “In vitro and in vivo activities of a trithiolato-diRuthenium complex conjugated with sulfadoxine against the apicomplexan parasite Toxoplasma gondii” (International Journal for Parasitology: Drugs and Drug …, 2024):
Read-outs that look alike come from different tables or passages of the source.

How the values were obtained:
[1] = test system: T. gondii β-gal tachyzoites; test: T. gondii β-Gal tachyzoite proliferation in HFF monolayers (β-galactosidase fluorometric assay); assay type: cell-based, Toxoplasma gondii
Description: Effects of drugs on the proliferative capacity of T. gondii tachyzoites were investigated using a transgenic T. gondii RH strain constitutively expressing β-Galactosidase (T. gondii β-Gal ([Dc et al., 1997]);). Assays were carried out in 96 well plates in the presence or absence of the different compounds. For the quantification of β-Galactosidase activity, a fluorometric assay was applied as previously described ([Desiatkina et al., 2021]; [Păunescu et al., 2021]).

HFF = HFF host cell cytotoxicity, Alamar blue viability assay; assay type: cell-based, human; details: 72 h, uninfected HFF
Description: To determine cytotoxicity of compounds on host cells, HFF were grown to confluency in 96 well plates and were treated with different concentrations of the drugs solubilized in medium during 72 h at 37 °C/5% CO2, or were treated with the corresponding concentration of DMSO only ([Desiatkina et al., 2020]; [Holzer et al., 2023]; [Păunescu et al., 2021]). The Alamar blue viability assay was used as previously described ([Desiatkina et al., 2020], [2021], [2022a], [2022b]; [Holzer et al., 2023]; [Păunescu et al., 2021]). In short, resazurin was added to each well at 0.01 mg/ml, and subsequently fluorescence of the produced resorufin was measured at excitation wavelength 544/20 nm and emission wavelength 590/20 nm using a Hidex Sense microplate reader (Hidex, Turku, Finland).

T. gondii ShSp1 oocysts = test: In vivo efficacy in CD1 mice orally infected with T. gondii ShSp1 oocysts (qPCR parasite load)
From the text: Female CD1 mice, 6 weeks of age, were purchased from Charles River (Sulzberg, Germany). They were housed in temperature-controlled animal facilities and were randomly distributed into 4 groups (8 mice/group, with 4 mice per cage), and food and water ad libitum. At the age of 8 weeks, mice were experimentally infected by peroral application of 120 TgShSp1 (type II) oocysts ([Imhof et al., 2021]). Placebo and RU-SDX treatments were started at 3 days p. i., with mice being treated orally by gavage. Group 1 (placebo control) received 100 μl corn oil supplemented with 10% DMSO, while group 2 (treatment group) was administered 5 mg/kg RU-SDX solubilized in 100 μl corn oil/10 % DMSO. These treatments were repeated on days 5, 7, 9 and 11 p. i. During the entire experiment mice were monitored for potential health issues at least twice per day. All mice were sacrificed at 30 days p. i. Brain, eyes, heart, and liver were collected and stored at −20 °C for subsequent DNA extraction and quantification of T. gondii load by quantitative PCR (qPCR).
Genomic DNA was extracted from the collected samples using the NucleoSpin DNA RapidLyze Kit (Macherey-Nagel, Oensingen, Switzerland) and DNA concentrations were quantified by the QuantiFluor double-stranded DNA (dsDNA) system (Promega, Madison, WI, USA) as previously described ([Imhof et al., 2021]). DNA concentrations were adjusted to 5 ng/μl, and qPCR reactions were performed in a final volume of 10 μl containing 1x SensiFast master mix (Bioline, Meridian Bioscience), 0.5 μM of reverse and forward primers, 0.1 μM of 529rpeQ-P probe, 0.3 mM dUTP, and one unit of heat-labile Uracil DNA Glycosylase (UDG) ([Hänggeli et al., 2022]). Amplification was performed in the Bio-Rad CFX 96 QPCR instRUment (Biorad) using the following thermal profile: (1) initial incubation of 10 min at 42 °C, followed by (2) denaturation step of 5 min at 95 °C and (3) 50 cycles of two-step amplification (10 s at 95 °C and 20 s at 62 °C). For quantification, a standard curve was made based on a 10-fold serial dilution of DNA from T. gondii, equivalent to tachyzoite numbers ranging from 1 × 10^4 to 1 per 4 μl. The parasite load was expressed as number of tachyzoites per 20 ng of DNA. Statistical analyses were performed using GraphPad Prism version 5.0 (GraphPad Software, La Jolla, CA, USA). Comparisons of the parasite burdens between groups were conducted with the non-parametric Kruskal-Wallis test, followed by the Mann-Whitney-U test.

[2] = test system: T. gondii Me49 tachyzoites; test: Transmission electron microscopy of treated tachyzoites in HFF; assay type: cell-based, Toxoplasma gondii; details: 0.5 μM, 6 h of treatment
Description: We examined the cellular ultrastructure of T. gondii tachyzoites treated with RU-SDX by TEM as described previously ([Anghel et al., 2021]; [Desiatkina et al., 2020]). Briefly, confluent HFF grown in T25 flasks were infected with 10^5 T. gondii Me49 tachyzoites, and infected cultures were maintained for 24 h at 37 °C/5% CO2. Subsequently, the medium was removed and medium containing 0.5 μM RU-SDX or 0.05% DMSO (as solvent control) was added, and cultures were maintained at 37 °C/5% CO2 during 6, 24 or 48 h. At the different timepoints the samples were fixed and processed for TEM ([Anghel et al., 2021]; [Desiatkina et al., 2020]). For this, cultures were washed with 0.1 M sodium cacodylate buffer (pH 7.3) and fixed in 2% glutaraldehyde in cacodylate buffer for 10 min at room temperature (RT). The fixed infected monolayers were gently scraped from the flasks, transferred into Eppendorf tubes, washed with in ice-cold 0.1 M sodium cacodylate buffer and fixed in 2% glutaraldehyde in cacodylate buffer for 2 h at RT. Further preparation steps included post-fixation in 2% osmium tetroxide, pre-staining, stepwise dehydration in ethanol, and embedding in Epon-812 resin. In some instances, T25 flasks containing HFF monolayers infected with T. gondii Me49 tachyzoites were treated with FCCP and CCCP for 10 min at 80 and 50 μM, respectively, and samples were prepared for TEM as described above. […]

[3] = test system: T. gondii β-gal tachyzoites; details: cited from earlier work

Structure (SMILES): CC(C)(C)c1ccc(C[S-])cc1.CC(C)(C)c1ccc(C[S-])cc1.COc1ncnc(NS(=O)(=O)c2ccc(NC(=O)Cc3ccc([S-])cc3)cc2)c1OC.Cc1ccc(C(C)C)cc1.Cc1ccc(C(C)C)cc1.[Cl-].[Ru+2].[Ru+2] [RU-SDX]
- T. gondii proliferation in relation to the non-treated control ([1]; 0.1 μM): 77%
- T. gondii proliferation in relation to the non-treated control ([1]; 1 μM): 2%
- proliferation (% of control ± SD) ([1]; 2.5 μM): ^∗∗∗0 ± 0%
- proliferation (% of control ± SD) ([1]; 5 μM): ^∗∗∗0 ± 0%
- IC50 ([1]; drug treatment applied concomitantly to infection of HFF monolayers): 112 nM
- IC50 ([1]; drug treatment initiated 3 h post infection, 95% CI in brackets): 145 nM
- IC50 ([1]; drug treatment initiated concomitantly to infection, 95% CI in brackets): 112 nM
- IC50 ([1]; drug treatment on already infected HFF): 145 nM
- IC50 ([1]; tachyzoites grown in HFF monolayers, drug added concomitantly to or after infection): < 150 nM
- viability (% of control ± SD) (HFF; 2.5 μM): 79 ± 4%
- viability (% of control ± SD) (HFF; 5 μM): 64 ± 4%
- viability (% of control ± SD) (HFF; 10 μM): 31 ± 9%
- cerebral parasite load compared to placebo control group (T. gondii ShSp1 oocysts; 5 mg/kg oral gavage, 5 treatments from day 3 p.i., brain at 30 days p.i., P = 0.37): did not result in any reduction
- parasite load in eyes compared to placebo control group (T. gondii ShSp1 oocysts; 5 mg/kg oral gavage, 5 treatments from day 3 p.i., eyes at 30 days p.i.): significantly reduced
- parasite load in the heart compared to placebo control group (T. gondii ShSp1 oocysts; 5 mg/kg oral gavage, 5 treatments from day 3 p.i., heart at 30 days p.i.): significantly reduced
- toxicity by clinical signs in treated mice (T. gondii ShSp1 oocysts; 5 mg/kg oral in corn oil/10% DMSO, 5 treatments): not toxic
- ultrastructural changes in tachyzoites (TEM) [2]: mitochondrial matrix appeared to have lost its characteristic electron dense texture in many areas
- proliferation (% of control ± SD) ([3]; 1 μM, ref Desiatkina et al., 2021): ^b^, ^∗∗∗11 ± 1%
- proliferation (% of control ± SD) ([3]; 1.1 μM, ref Desiatkina et al., 2021): ^b^,*116 ± 1%
- proliferation (% of control ± SD) ([3]; 1.25 μM, ref Desiatkina et al., 2021, Păunescu et al.): ^b^, ^a0 ± 0%
